# Measured values reported in PubChem BioAssay (NCI).
#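 Growth conditions: 96-well plates. Treatment: test compound, 48 hours, 5 concentrations. Analysis: linear interpolation between bracketing concentrations; unreached endpoints set to highest concentration. Abbreviation: GI50, concentration required for 50% inhibition of growth. TGI: concentration producing complete growth inhibition.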
# Assays:
# Test in all cases: DTP human tumour cell line panel, 48 h
# OVCAR-5 ovarian = tested on: OVCAR-5 ovarian
# MDA-MB-231 breast = tested on: MDA-MB-231 breast
# KM12 colon = tested on: KM12 colon
# NCI/ADR-RES ovarian = tested on: NCI/ADR-RES ovarian
# COLO 205 colon = tested on: COLO 205 colon
# TK-10 renal = tested on: TK-10 renal
# HL-60(TB) leukemia = tested on: HL-60(TB) leukemia
# U251 CNS = tested on: U251 CNS
# RXF 393 renal = tested on: RXF 393 renal
# SW-620 colon = tested on: SW-620 colon
# SK-OV-3 ovarian = tested on: SK-OV-3 ovarian
# SK-MEL-2 melanoma = tested on: SK-MEL-2 melanoma
# SF-295 CNS = tested on: SF-295 CNS
# BT-549 breast = tested on: BT-549 breast
# HOP-62 NSCLC = tested on: HOP-62 NSCLC
# A498 renal = tested on: A498 renal
# SF-539 CNS = tested on: SF-539 CNS
# DU-145 prostate = tested on: DU-145 prostate
# OVCAR-3 ovarian = tested on: OVCAR-3 ovarian
# 786-0 renal = tested on: 786-0 renal
# MOLT-4 leukemia = tested on: MOLT-4 leukemia
# PC-3 prostate = tested on: PC-3 prostate
# RPMI-8226 leukemia = tested on: RPMI-8226 leukemia
# OVCAR-4 ovarian = tested on: OVCAR-4 ovarian
# NCI-H460 lung = tested on: NCI-H460 lung
# MALME-3M melanoma = tested on: MALME-3M melanoma
# HCT-116 colon = tested on: HCT-116 colon
# UACC-62 melanoma = tested on: UACC-62 melanoma
# SNB-19 CNS = tested on: SNB-19 CNS
# ACHN renal = tested on: ACHN renal
# MDA-MB-435 = tested on: MDA-MB-435
# CAKI-1 renal = tested on: CAKI-1 renal
# HCC-2998 colon = tested on: HCC-2998 colon
# HCT-15 colon = tested on: HCT-15 colon
# SNB-75 CNS = tested on: SNB-75 CNS
# T-47D breast = tested on: T-47D breast
# HOP-92 NSCLC = tested on: HOP-92 NSCLC
# SK-MEL-5 melanoma = tested on: SK-MEL-5 melanoma
# M14 melanoma = tested on: M14 melanoma
# UO-31 renal = tested on: UO-31 renal
# NCI-H23 lung = tested on: NCI-H23 lung
# A549 NSCLC = tested on: A549 NSCLC
# EKVX NSCLC = tested on: EKVX NSCLC
# SF-268 CNS = tested on: SF-268 CNS
# CCRF-CEM leukemia = tested on: CCRF-CEM leukemia
# SR leukemia = tested on: SR leukemia
# HT29 colon = tested on: HT29 colon
# IGROV1 ovarian = tested on: IGROV1 ovarian
# UACC-257 melanoma = tested on: UACC-257 melanoma
# NCI-H522 lung = tested on: NCI-H522 lung
# MCF7 breast = tested on: MCF7 breast
# K-562 leukemia = tested on: K-562 leukemia
# SN12C renal = tested on: SN12C renal
# OVCAR-8 ovarian = tested on: OVCAR-8 ovarian
# NCI-H226 lung = tested on: NCI-H226 lung
# HS 578T breast = tested on: HS 578T breast
smiles,measurement,setting,value
COc1ccc2c(c1)CC[C@@H]1[C@@H]2CC[C@]2(C)C(=O)/C(=C/c3ccc(N(C)C)cc3)C[C@@H]12,TGI,OVCAR-5 ovarian,> 100 µM
same,TGI,MDA-MB-231 breast,> 100 µM
same,TGI,KM12 colon,> 100 µM
same,TGI,NCI/ADR-RES ovarian,> 100 µM
same,TGI,COLO 205 colon,> 100 µM
same,TGI,TK-10 renal,96.9 µM
same,TGI,HL-60(TB) leukemia,> 100 µM
same,TGI,U251 CNS,> 100 µM
same,TGI,RXF 393 renal,87.2 µM
same,TGI,SW-620 colon,> 100 µM
same,TGI,SK-OV-3 ovarian,> 100 µM
same,TGI,SK-MEL-2 melanoma,84.6 µM
same,TGI,SF-295 CNS,> 100 µM
same,TGI,BT-549 breast,70.6 µM
same,TGI,HOP-62 NSCLC,44.8 µM
same,TGI,A498 renal,> 100 µM
same,TGI,SF-539 CNS,> 100 µM
same,TGI,DU-145 prostate,> 100 µM
same,TGI,OVCAR-3 ovarian,54.6 µM
same,TGI,786-0 renal,80.7 µM
same,TGI,MOLT-4 leukemia,> 100 µM
same,TGI,PC-3 prostate,> 100 µM
same,TGI,RPMI-8226 leukemia,> 100 µM
same,TGI,OVCAR-4 ovarian,> 100 µM
same,TGI,NCI-H460 lung,> 100 µM
same,TGI,MALME-3M melanoma,> 100 µM
same,TGI,HCT-116 colon,> 100 µM
same,TGI,UACC-62 melanoma,> 100 µM
same,TGI,SNB-19 CNS,> 100 µM
same,TGI,ACHN renal,> 100 µM
same,TGI,MDA-MB-435,> 100 µM
same,TGI,CAKI-1 renal,71.7 µM
same,TGI,HCC-2998 colon,> 100 µM
same,TGI,HCT-15 colon,> 100 µM
same,TGI,SNB-75 CNS,52.3 µM
same,TGI,T-47D breast,> 100 µM
same,TGI,HOP-92 NSCLC,69 µM
same,TGI,SK-MEL-5 melanoma,> 100 µM
same,TGI,M14 melanoma,> 100 µM
same,TGI,UO-31 renal,> 100 µM
same,TGI,NCI-H23 lung,> 100 µM
same,TGI,A549 NSCLC,> 100 µM
same,TGI,EKVX NSCLC,> 100 µM
same,TGI,SF-268 CNS,89.9 µM
NC(N)=N/N=C/c1c(-c2ccc(Cl)c([N+](=O)[O-])c2)nc2sc(Cl)cn12,TGI,OVCAR-5 ovarian,> 100 µM
same,TGI,CCRF-CEM leukemia,> 100 µM
same,TGI,SR leukemia,> 100 µM
same,TGI,HT29 colon,6.85 µM
same,TGI,NCI/ADR-RES ovarian,> 100 µM
same,TGI,TK-10 renal,58.5 µM
same,TGI,IGROV1 ovarian,3.18 µM
same,TGI,HL-60(TB) leukemia,> 100 µM
same,TGI,U251 CNS,> 100 µM
same,TGI,BT-549 breast,3.48 µM
same,TGI,HOP-62 NSCLC,> 100 µM
same,TGI,SF-539 CNS,4.98 µM
same,TGI,UACC-257 melanoma,3.79 µM
same,TGI,786-0 renal,> 100 µM
same,TGI,RPMI-8226 leukemia,> 100 µM
same,TGI,NCI-H460 lung,8.08 µM
same,TGI,NCI-H522 lung,3.07 µM
same,TGI,MALME-3M melanoma,5.58 µM
same,TGI,HCT-116 colon,> 100 µM
same,TGI,HCC-2998 colon,> 100 µM
same,TGI,HCT-15 colon,> 100 µM
same,TGI,MCF7 breast,6.3 µM
same,TGI,SK-MEL-5 melanoma,15.9 µM
same,TGI,UO-31 renal,3.47 µM
same,TGI,K-562 leukemia,> 100 µM
same,TGI,SN12C renal,4.88 µM
same,TGI,A549 NSCLC,7 µM
same,TGI,OVCAR-8 ovarian,4.08 µM
same,TGI,NCI-H226 lung,> 100 µM
same,TGI,HS 578T breast,5.54 µM
COC(=O)c1ccc2[nH]c(O)c(C(=Nc3ccc(N(C)C(=O)CN4CCN(C)CC4)cc3)c3ccc(C)cc3)c2c1,GI50,CCRF-CEM leukemia,0.355 µM
same,GI50,SR leukemia,0.153 µM
same,TGI,SR leukemia,1.34 µM
same,GI50,U251 CNS,0.571 µM
same,TGI,U251 CNS,2 µM
same,GI50,RXF 393 renal,0.221 µM
same,TGI,RXF 393 renal,1.05 µM
same,GI50,BT-549 breast,1.13 µM
same,TGI,BT-549 breast,2.45 µM
same,GI50,A498 renal,0.458 µM
same,TGI,A498 renal,1.96 µM
same,GI50,SF-539 CNS,0.307 µM
same,TGI,SF-539 CNS,1.18 µM
same,GI50,786-0 renal,0.336 µM
same,TGI,786-0 renal,1.78 µM
same,GI50,RPMI-8226 leukemia,0.494 µM
same,TGI,RPMI-8226 leukemia,2.47 µM
same,GI50,MALME-3M melanoma,0.618 µM
same,TGI,MALME-3M melanoma,1.88 µM
same,GI50,HCT-116 colon,0.124 µM
same,TGI,HCT-116 colon,1.27 µM
same,GI50,CAKI-1 renal,0.132 µM
same,TGI,CAKI-1 renal,1.48 µM
same,GI50,SK-MEL-5 melanoma,1.11 µM
same,TGI,SK-MEL-5 melanoma,2.39 µM
same,GI50,UO-31 renal,0.353 µM
same,TGI,UO-31 renal,1.47 µM
same,GI50,HS 578T breast,0.105 µM
same,TGI,HS 578T breast,0.977 µM
